# Counter-ions that a name gives are not always drawn.
# Tests used:
# [1] = system: human leukemic cells (CCRF-CEM cell line); test: C.C.R.F.-C.E.M. Cytotoxicity Assay, growth inhibition of human leukemic cells; format: cell-based; settings: read-out: IC50 (concentration giving 50% growth inhibition)
# Excerpt: In the Table, column 1 gives the name of the compound and column 2, the IC50 (concentration giving 50% growth inhibition) in mcg/ml.
# [2] = pKa (66% DMF); format: physicochemical
# [3] = system: 6C3HED lymphosarcoma; test: activity against transplanted tumor 6C3HED lymphosarcoma in mice; format: in vivo; settings: intravenous, day one
# Protocol: Certain of the above compounds have also shown activity against a transplanted tumor, 6C3HED lymphosarcoma, in mice. Information as to this activity is summarized in Table 2 in which column 1 gives the name of the compound, column 2, the dose level in mg./kg. and column 3 the percent tumor inhabitation. All compounds were administered on day one by the intravenous route.
# [4] = system: growing tumor cells; test: metaphase arrest, block of growing tumor cells in mitosis; format: cell-based; settings: standard procedures; read-out: concentration at which compound blocked growing tumor cells in mitosis (metaphase arrest)
# Protocol: The compounds of this invention in which Z is OH, NH2, NHNH2, or O--C1-3 alkyl have utility as anti-tumor compounds acti transplanted tumors in mice, as mitotic inhibitors and as cytotoxic agents. As evidence of such utility, the ability of N^2 -succinoyl 4-desacetyl VLB 3-carboxhydrazide methyl ester sulfate to cause metaphase arrest was measured by standard procedures.
# [5] = system: vincristine-resistant leukemias; settings: marketed oncolytic agent; cited from earlier work
smiles,measurement,setting,value
CC[C@]1(O)C[C@@H]2CN(CCc3c([nH]c4ccccc34)[C@@](C(=O)OC)(c3cc4c(cc3OC)N(C)[C@H]3[C@@](O)(C(=O)NNC(=O)CCCCC(=O)OC)[C@H](O)[C@]5(CC)C=CCN6CC[C@]43[C@@H]65)C2)C1 [N^2-adipoyl-4-desacetyl VLB 3-carboxyhydrazide methylester],IC50,[1],0.4 µg/mL
"CC[C@]1(O)C[C@@H]2CN(CCc3c([nH]c4ccccc34)[C@@](C(=O)OC)(c3cc4c(cc3OC)N(C)[C@H]3[C@@](O)(C(=O)NNC(=O)CCCC(=O)O)[C@H](O)[C@]5(CC)C=CCN6CC[C@]43[C@@H]65)C2)C1 [Example 8, N^2 -Glutaroyl 4-desacetyl VLB 3-carboxhydrazide]",pKa,[2],4.8
CC[C@]1(O)C[C@@H]2CN(CCc3c([nH]c4ccccc34)[C@@](C(=O)OC)(c3cc4c(cc3OC)N(C)[C@H]3[C@@](O)(C(=O)NNC(=O)CCC(=O)O)[C@H](O)[C@]5(CC)C=CCN6CC[C@]43[C@@H]65)C2)C1 [N^2 --Succinoyl 4-desacetyl VLB 3-carboxhydrazide sulfate],% Tumor Inhibition,[3]; 0.625 mg/kg,13%
same,% Tumor Inhibition,[3]; 1.25 mg/kg,5%
same,% Tumor Inhibition,[3]; 2.5 mg/kg,5%
same,% Tumor Inhibition,[3]; 5 mg/kg,33%
same,% Tumor Inhibition,[3]; 10 mg/kg,77%
same,% Tumor Inhibition,[3]; 20 mg/kg,100%
same,% Tumor Inhibition,[3]; 40 mg/kg,100%
CC[C@]1(O)C[C@@H]2CN(CCc3c([nH]c4ccccc34)[C@@](C(=O)OC)(c3cc4c(cc3OC)N(C)[C@H]3[C@@](O)(C(=O)NNC(=O)CCC(=O)OC)[C@H](O)[C@]5(CC)C=CCN6CC[C@]43[C@@H]65)C2)C1 [N^2-succinoyl 4-desacetyl VLB 3-carboxhydrazide methyl ester],minimal effective concentration,[4],0.2 µg/mL
same,% Tumor Inhibition,[3]; 1 mg/kg,100%
same,% Tumor Inhibition (toxic dose),[3]; 2 mg/kg,Toxic
same,% Tumor Inhibition (toxic dose),[3]; 4 mg/kg,Toxic
same,% Tumor Inhibition,[3]; .5 mg/kg,100%
"CC[C@]1(O)C[C@@H]2CN(CCc3c([nH]c4ccccc34)[C@@](C(=O)OC)(c3cc4c(cc3OC)N(C)[C@H]3[C@@](O)(C(N)=O)[C@H](O)[C@]5(CC)C=CCN6CC[C@]43[C@@H]65)C2)C1 [vindesine, 4-desacetyl VLB 3-carboxamide]",effectiveness in treating leukemias and neoplasms,[5],effective in treating some vincristine-resistant leukemias in addition to many common neoplasms including germ-cell tumors
"CC[C@]1(O)C[C@@H]2CN(CCc3c([nH]c4ccccc34)[C@@](C(=O)OC)(c3cc4c(cc3OC)N(C)[C@H]3[C@@](O)(C(=O)NNC(=O)CCC(=O)O)[C@H](O)[C@]5(CC)C=CCN6CC[C@]43[C@@H]65)C2)C1 [Example 1, N^2 -Succinoyl-4-desacetyl VLB 3-carboxhydrazide]",pKa,[2],5.1
CC[C@]1(O)C[C@@H]2CN(CCc3c([nH]c4ccccc34)[C@@](C(=O)OC)(c3cc4c(cc3OC)N(C)[C@H]3[C@@](O)(C(=O)NNC(=O)CCCC(=O)O)[C@H](O)[C@]5(CC)C=CCN6CC[C@]43[C@@H]65)C2)C1 [N^2-glutaroyl 4-desacetyl VLB 3-carboxhydrazide sulfate],IC50,[1],0.1 µg/mL

# — patent US4675400A, “Bifunctional derivatives of 4-desacetyl indole-dihydroindole alkaloids” (Eli Lilly and Company, priority 1985, dated 1987)
